According to PubChem BioAssay (NCI):
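Cultured in 96-well plates, cells were exposed to test compound for 48 hours across five concentrations. GI50: concentration for 50% inhibition of growth. The concentration for full growth arrest is given as TGI.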

Key:
Assay in all cases: NCI anticancer screen, dose series, 48 h
UACC-62 melanoma = tested on: UACC-62 melanoma
OVCAR-8 ovarian = tested on: OVCAR-8 ovarian
SK-MEL-28 melanoma = tested on: SK-MEL-28 melanoma
K-562 leukemia = tested on: K-562 leukemia
HCT-15 colon = tested on: HCT-15 colon
SF-539 CNS = tested on: SF-539 CNS
DU-145 prostate = tested on: DU-145 prostate
COLO 205 colon = tested on: COLO 205 colon
NCI-H460 lung = tested on: NCI-H460 lung
SNB-75 CNS = tested on: SNB-75 CNS
CCRF-CEM leukemia = tested on: CCRF-CEM leukemia
SNB-19 CNS = tested on: SNB-19 CNS
SK-MEL-5 melanoma = tested on: SK-MEL-5 melanoma
KM12 colon = tested on: KM12 colon
SK-OV-3 ovarian = tested on: SK-OV-3 ovarian
UO-31 renal = tested on: UO-31 renal
SR leukemia = tested on: SR leukemia
NCI-H522 lung = tested on: NCI-H522 lung
786-0 renal = tested on: 786-0 renal
MALME-3M melanoma = tested on: MALME-3M melanoma
HCC-2998 colon = tested on: HCC-2998 colon
RXF 393 renal = tested on: RXF 393 renal
MOLT-4 leukemia = tested on: MOLT-4 leukemia
U251 CNS = tested on: U251 CNS
HL-60(TB) leukemia = tested on: HL-60(TB) leukemia
SW-620 colon = tested on: SW-620 colon
HT29 colon = tested on: HT29 colon
OVCAR-5 ovarian = tested on: OVCAR-5 ovarian
SF-268 CNS = tested on: SF-268 CNS
CAKI-1 renal = tested on: CAKI-1 renal
NCI-H226 lung = tested on: NCI-H226 lung
PC-3 prostate = tested on: PC-3 prostate
HOP-92 NSCLC = tested on: HOP-92 NSCLC
T-47D breast = tested on: T-47D breast
MCF7 breast = tested on: MCF7 breast
IGROV1 ovarian = tested on: IGROV1 ovarian
SF-295 CNS = tested on: SF-295 CNS
A498 renal = tested on: A498 renal
SN12C renal = tested on: SN12C renal
RPMI-8226 leukemia = tested on: RPMI-8226 leukemia
ACHN renal = tested on: ACHN renal
BT-549 breast = tested on: BT-549 breast
HOP-62 NSCLC = tested on: HOP-62 NSCLC
SK-MEL-2 melanoma = tested on: SK-MEL-2 melanoma
TK-10 renal = tested on: TK-10 renal
HS 578T breast = tested on: HS 578T breast
OVCAR-4 ovarian = tested on: OVCAR-4 ovarian
MDA-MB-435 = tested on: MDA-MB-435
MDA-MB-231 breast = tested on: MDA-MB-231 breast
NCI/ADR-RES ovarian = tested on: NCI/ADR-RES ovarian
NCI-H23 lung = tested on: NCI-H23 lung
OVCAR-3 ovarian = tested on: OVCAR-3 ovarian
LOX IMVI melanoma = tested on: LOX IMVI melanoma
A549 NSCLC = tested on: A549 NSCLC
EKVX NSCLC = tested on: EKVX NSCLC
HCT-116 colon = tested on: HCT-116 colon

CCOc1ccccc1C(=O)/C=C/c1cc2ccccc2[nH]c1=O
GI50 (UACC-62 melanoma): 42.3 nM
TGI (UACC-62 melanoma): 1930 nM
GI50 (OVCAR-8 ovarian): 50.7 nM
TGI (OVCAR-8 ovarian): 2080 nM
GI50 (SK-MEL-28 melanoma): 324 nM
TGI (SK-MEL-28 melanoma): 2160 nM
GI50 (K-562 leukemia): < 10 nM
TGI (K-562 leukemia): > 100000 nM
GI50 (HCT-15 colon): 33.9 nM
TGI (HCT-15 colon): 1220 nM
GI50 (SF-539 CNS): 29.4 nM
TGI (SF-539 CNS): 129 nM
GI50 (DU-145 prostate): 38 nM
TGI (DU-145 prostate): 905 nM
GI50 (COLO 205 colon): 37.1 nM
TGI (COLO 205 colon): 643 nM
GI50 (NCI-H460 lung): 33.2 nM
TGI (NCI-H460 lung): 349 nM
GI50 (SNB-75 CNS): 20.9 nM
TGI (SNB-75 CNS): 76.6 nM
GI50 (CCRF-CEM leukemia): 29 nM
TGI (CCRF-CEM leukemia): > 100000 nM
GI50 (SNB-19 CNS): 45.9 nM
TGI (SNB-19 CNS): 1340 nM
GI50 (SK-MEL-5 melanoma): 43.1 nM
TGI (SK-MEL-5 melanoma): 1310 nM
GI50 (KM12 colon): 35.5 nM
TGI (KM12 colon): 570 nM
GI50 (SK-OV-3 ovarian): 106 nM
TGI (SK-OV-3 ovarian): 15200 nM
GI50 (UO-31 renal): 61.1 nM
TGI (UO-31 renal): 1590 nM
GI50 (SR leukemia): < 10 nM
TGI (SR leukemia): > 100000 nM
GI50 (NCI-H522 lung): 30.8 nM
TGI (NCI-H522 lung): 1830 nM
GI50 (786-0 renal): 39.9 nM
TGI (786-0 renal): 1330 nM
GI50 (MALME-3M melanoma): 23.8 nM
TGI (MALME-3M melanoma): 1880 nM
GI50 (HCC-2998 colon): 126 nM
TGI (HCC-2998 colon): 654 nM
GI50 (RXF 393 renal): 32.2 nM
TGI (RXF 393 renal): 340 nM
GI50 (MOLT-4 leukemia): 38.5 nM
TGI (MOLT-4 leukemia): 4430 nM
GI50 (U251 CNS): 39.7 nM
TGI (U251 CNS): 1330 nM
GI50 (HL-60(TB) leukemia): 13 nM
TGI (HL-60(TB) leukemia): 59 nM
GI50 (SW-620 colon): 19.4 nM
TGI (SW-620 colon): 1160 nM
GI50 (HT29 colon): 23.2 nM
TGI (HT29 colon): 2060 nM
GI50 (OVCAR-5 ovarian): 193 nM
TGI (OVCAR-5 ovarian): 1440 nM
GI50 (SF-268 CNS): 86 nM
TGI (SF-268 CNS): 1850 nM
GI50 (CAKI-1 renal): 25.8 nM
TGI (CAKI-1 renal): 1490 nM
GI50 (NCI-H226 lung): 202 nM
TGI (NCI-H226 lung): 6490 nM
GI50 (PC-3 prostate): 41.3 nM
TGI (PC-3 prostate): 2760 nM
GI50 (HOP-92 NSCLC): 77.8 nM
TGI (HOP-92 NSCLC): 1410 nM
GI50 (T-47D breast): 271 nM
TGI (T-47D breast): 19600 nM
GI50 (MCF7 breast): 35.6 nM
TGI (MCF7 breast): 1410 nM
GI50 (IGROV1 ovarian): 56.4 nM
TGI (IGROV1 ovarian): 1860 nM
GI50 (SF-295 CNS): 31.1 nM
TGI (SF-295 CNS): 1280 nM
GI50 (A498 renal): 14.7 nM
TGI (A498 renal): 81.3 nM
GI50 (SN12C renal): 96.1 nM
TGI (SN12C renal): 1630 nM
GI50 (RPMI-8226 leukemia): 28.4 nM
TGI (RPMI-8226 leukemia): 991 nM
GI50 (ACHN renal): 60.3 nM
TGI (ACHN renal): 1730 nM
GI50 (BT-549 breast): 72 nM
TGI (BT-549 breast): 1410 nM
GI50 (HOP-62 NSCLC): 67.8 nM
TGI (HOP-62 NSCLC): 3470 nM
GI50 (SK-MEL-2 melanoma): 65.7 nM
TGI (SK-MEL-2 melanoma): 3020 nM
GI50 (TK-10 renal): 438 nM
TGI (TK-10 renal): 2930 nM
GI50 (HS 578T breast): 22.2 nM
TGI (HS 578T breast): 93.3 nM
GI50 (OVCAR-4 ovarian): 144 nM
TGI (OVCAR-4 ovarian): 6240 nM
GI50 (MDA-MB-435): < 10 nM
TGI (MDA-MB-435): 13.9 nM
GI50 (MDA-MB-231 breast): 77.4 nM
TGI (MDA-MB-231 breast): 2010 nM
GI50 (NCI/ADR-RES ovarian): 23.4 nM
TGI (NCI/ADR-RES ovarian): 14400 nM
GI50 (NCI-H23 lung): 72.9 nM
TGI (NCI-H23 lung): 1770 nM
GI50 (OVCAR-3 ovarian): 24.5 nM
TGI (OVCAR-3 ovarian): 108 nM
GI50 (LOX IMVI melanoma): 44.3 nM
TGI (LOX IMVI melanoma): 1060 nM
GI50 (A549 NSCLC): 74.1 nM
TGI (A549 NSCLC): 12400 nM
GI50 (EKVX NSCLC): 172 nM
TGI (EKVX NSCLC): 1990 nM
GI50 (HCT-116 colon): < 22.9 nM
TGI (HCT-116 colon): 1170 nM
